Patent US20200216316A1, “METHOD FOR THE MANUFACTURE OF CYCLODODECASULFUR” (EASTMAN CHEMICAL COMPANY, priority 2016, published 2020)

Key:
[1] = Thermal decomposition in p-xylene at 115° C. (sulfur content of supernatant by Uniquant); format: physicochemical; conditions: for Content of sulfur in the p-xylene solvent: 115° C.
Description: The purpose of this experiment was to determine the rate that polymeric sulfur thermally decomposes into cyclooctasulfur in p-xylene. Polymeric sulfur is essentially insoluble in p-xylene, except when the polymer decomposes into cyclooctasulfur. Thus, the sulfur content in the p-xylene is a measure of the amount of polymeric sulfur that has decomposed to cyclooctasulfur. In this experiment, 50.32 grams of p-xylene were added to a 100-milliliter jacketed glass vessels fitted with a circulating heating bath, cooling water condenser, magnetic stir bar and stir plate, and nitrogen purge. The p-xylene was heated to 115° C. and 2.03 grams of unoiled commercial crystalline polymeric sulfur (Crystex™) was added while stirring. Periodically samples of the supernatant liquid were withdrawn from the vessel via a heated fritted glass pipette (heated to the same temperature as the solution). These supernatant samples were analyzed by Uniquant to determine sulfur content. The sulfur content was used to calculate the amount of polymeric sulfur remaining undissolved and undecomposed to cyclooctasulfur. After 60 and 75 minutes at 115° C., about 85% and essentially 100% respectively, of the polymeric sulfur had been converted into cyclooctasulfur.
The equipment and procedure used in Example 22 for measurement of the decomposition of polymeric sulfur was used to measure the decomposition of cyclododecasulfur in para-xylene. Two grams of purified cyclododecasulfur (produced by a procedure in the fashion of Example 2) was heated and stirred in 50.0 grams of p-xylene in a 100-milliliter jacketed glass vessels fitted with a circulating heating bath, cooling water condenser, magnetic stir bar and stir plate, and nitrogen purge. After 60, 75, and 120 minutes at 115° C., the content of sulfur in the p-xylene solvent was found by Uniquant to be about 0.4 wt % in each case, similar to the solubility of cyclododecasulfur in p-xylene at 115° C. (see Example 21). Upon cooling of the p-xylene, filtration, and drying of the recovered solids overnight in a vacuum oven at room temperature and 0.067 MPa (absolute), greater than 97% of the cyclododecasulfur input weight of solids was recovered.

[2] = Solubility of sulfur species in p-xylene, chlorobenzene and carbon disulfide (sulfur content of equilibrated supernatant by Uniquant); format: physicochemical
Description: Fifty grams of p-xylene was added to each of three identical 100-milliliter jacketed glass vessels fitted with a circulating heating bath, cooling water condenser, magnetic stir bar and stir plate, and nitrogen purge. All vessels were heated to the desired temperature, and cyclooctasulfur, cyclododecasulfur (prepared as in Example 2), and unoiled commercial crystalline polymeric sulfur (Crystex™) was added in sufficient quantities to each of the glass vessels to allow undissolved solids to remain after dissolution and equilibration of the mixture. The equilibration period typically lasted 2 to 8 hours, during which the contents of the vessel were maintained at the desired temperature and stirred continuously. Upon equilibration, supernatant liquid was withdrawn from the vessels via a heated fritted glass pipette (heated to the same temperature as the solution). The supernatants were analyzed by Uniquant to determine sulfur content, indicating the solubility of the sulfur species at the vessel temperature. Similar experiments were conducted for carbon disulfide and chlorobenzene for each of the three solutes.

Row | Input weight of solids recovered after heating ([1]; after 120 minutes at 115° C. in p-xylene, cooling, filtration and drying) | Fraction decomposed/converted to cyclooctasulfur ([1]; mixture of polymeric sulfur and cyclododecasulfur in p-xylene at 115° C. for two hours) | Content of sulfur in the p-xylene solvent ([1]; 60 minutes) | Content of sulfur in the p-xylene solvent ([1]; 75 minutes) | Content of sulfur in the p-xylene solvent ([1]; 120 minutes) | Solubility in weight % of solute in solvent ([2]; CS2, 22 ° C.) [wt %] | Solubility in weight % of solute in solvent ([2]; CS2, 45 ° C.) [wt %] | Solubility in weight % of solute in solvent ([2]; Cl-benzene, 45 ° C.) [wt %] | Solubility in weight % of solute in solvent ([2]; Cl-benzene, 115 ° C.) [wt %] | Solubility in weight % of solute in solvent ([2]; P-xylene, 45 ° C.) [wt %] | Solubility in weight % of solute in solvent ([2]; P-xylene, 115 ° C.) [wt %] | Solubility in weight % of solute in solvent ([2]; Cl-benzene, 22 ° C.) [wt %] | Solubility in weight % of solute in solvent ([2]; P-xylene, 22 ° C.) [wt %] | Compound
1 | greater than 97% | less than 3% | about 0.4 wt % | about 0.4 wt % | about 0.4 wt % | 0.2 | 0.5 | 0.015 | 0.44 | <0.05 | 0.4 |  |  | S1SSSSSSSSSSS1 [Cyclododecasulfur, cyclododecasulfur]
2 |  |  |  |  |  | 32 | 48 | 6.2 |  | 5.6 |  | 2.4 | 2.3 | S1SSSSSSS1 [Cyclooctasulfur, cyclooctasulfur, reference compound]
